The record followed here is publication PMC8398393, “Synthesis and Biological Evaluation of Amidinourea Derivatives against Herpes Simplex Viruses” (Molecules, 2021).

One data set concerns HSV-1. Description: Virus yield reduction assay (plaque titration) HSV-1. In kind it is cell-based, Herpes simplex virus type 1 (clinical isolate) in Vero cells. Particulars: for antiviral activity against HSV-1 (in words): virus yield reduction, Vero cells, MOI 0.1, 48 h, 100 µM (50 µM for 5f and 5k); for IC50: Human alphaherpesvirus 1, HSV-1, Vero cells, MOI 0.1, 2 h pre-treatment, 48 h, plaque assay, read-out: IC50 values (compound concentration required to inhibit 50% of viral infectivity). On the procedure:
(§1) Vero cells were seeded at a density of 3 × 10^5/well in a 24-well culture plate. Twenty-four hours later, the cells were pre-treated with the different drugs for 2 h at 37 °C, and then infected in duplicate with HSV-1 or HSV-2 at an MOI of 0.1, in the presence of the compounds; following virus adsorption, the viral inoculum was removed and cultures were exposed to the compounds for 48 h. The extent of HSV-1 and HSV-2 replication was then assessed by titrating the infectivity of supernatants and cell-associated viruses using a standard plaque assay in Vero cells. Plaques were microscopically counted, and the mean plaque counts for each drug concentration were expressed as plaque-forming units per milliliter (PFU/mL) (Figure 3).
(§2) The African green monkey kidney cells (Vero, ATCC CCL-81™) were cultured in Dulbecco’s Modified Eagle’s Medium, supplemented with 10% heat inactivated fetal bovine serum (FBS), 2 mM glutamine, 1 mM sodium pyruvate, 100 U/mL penicillin and 100 µg/mL streptomycin sulfate (Sigma-Aldrich, Milan, Italy). Clinical isolates of HSV-1 and HSV-2 were a generous gift from Valeria Ghisetti, Amedeo di Savoia Hospital, Turin, Italy. They were propagated and titrated by plaque assay on Vero cells, as previously described.
(§3) Vero cells were seeded in 24-well plates and pre-treated, after 24 h, with different concentrations of the amidinourea derivatives or the vehicle control (DMSO) for 2 h at 37 °C. They were then infected with HSV at MOI of 0.1 PFU/cell in the presence of the compounds. Following virus adsorption (2 h at 37 °C), the viral inoculum was removed, and the cultures were maintained in a medium that contained the corresponding molecule for 48 h. The cells and supernatants were then harvested and disrupted using three freeze (liquid nitrogen)/thaw (37 °C) cycles. The extent of virus replication was subsequently assessed by titrating the infectivity of the supernatants of the cell suspensions in Vero cells, as previously described. Plaques were microscopically counted, and the mean plaque counts for each drug concentration were expressed as PFU/mL.
(§4) Data were presented as the mean value and standard error of the mean (SEM). Data were analyzed by means of GraphPad Prism 5 software (GraphPad Software, Inc., La Jolla, CA, USA). Statistical analysis was performed using one-way ANOVA with Bonferroni’s post-test; p < 0.05 was considered statistically significant. The IC50 e CC50 values were calculated using the online tool Quest Graph™ IC50 Calculator, AAT Bioquest, Inc., Sunnyvale, CA, USA, https://www.aatbio.com/tools/ic50-calculator (accessed on 4 May 2021).
Figure 3 Antiviral activity of 5a–k against HSV-1 and HSV-2. Upper panel. Virus yield reduction assay. Vero cells were treated as described in the manuscript with the indicated compounds. The extent of (A) HSV-1 and (B) HSV-2 replication was then assessed by titrating the infectivity of supernatants and cell-associated viruses using a standard plaque assay in Vero cells. Plaques were microscopically counted, and the mean plaque counts for each molecule were expressed as PFU/mL. Mean ± SEM is shown (***, p < 0.001, one-way ANOVA followed by Bonferroni’s post-tests). Lower panel. Representative light microscopy images of Vero cells infected with (A) HSV-1 or (B) HSV-2 and treated with the indicated compounds, as described for virus yield reduction assay. Original magnification: 20×.
Figure 4 (A) Vero cells were infected with HSV-1 and, where indicated, the cells were treated with increasing concentrations of the indicated compounds, before and during virus adsorption. These remained in the culture media throughout the experiment. The extent of HSV-1 replication was then assessed by titrating the infectivity of supernatants and cell-associated viruses—obtained from freeze (liquid nitrogen)/thaw (37 °C) cycles—and combined using a standard plaque assay. […]

Data set [1] can be described thus: Cytotoxicity assay (MTT) in Vero cells. Particulars: African green monkey, Vero cells (African green monkey kidney cells), compound concentration that produces 50% of cytotoxicity. The class given is cell-based. On the procedure: We then investigated whether the new amidinourea derivatives 5a–k could affect HSV-1 and HSV-2 replication. We first assessed cell cytotoxicity of the compounds in African green monkey kidney cells (Vero) to rule out the possibility that antiviral activity was related to the cytotoxic effects of the drug (Table 1). Vero cells were seeded at a density of 3 × 10^4/well in a 96-well culture plate. After 24 h, the cells were treated with different dilutions of drugs, or mock-treated using the same amount of vehicle solution (DMSO). Forty-eight hours after treatment, cell viability was determined using a standard 3-(4,5-dimethylthiazol-2-yl)-2,5-diphenyltetrazolium bromide (MTT) assay. The compounds were considered non-toxic only if they maintained at least 70% cell viability after 48 h of treatment.
To determine the cytotoxicity of amidinourea derivatives, Vero cells were seeded in a 96-well culture plate and exposed to increasing concentrations of either compounds or vehicle (DMSO) the following day. After 48 h of incubation, the number of viable cells was determined using the 3-(4,5-dimethylthiazol-2-yl)-2,5-diphenyltetrazolium bromide (MTT) (Sigma-Aldrich, Milan, Italy) assay, as previously described.
as §4

In the next data set the test system is HSV-2. The data set can be described thus: Virus yield reduction assay (plaque titration) HSV-2. Particulars: Vero cells, MOI 0.1, 48 h, 100 µM (50 µM for 5f and 5k). In kind it is cell-based, Herpes simplex virus type 2 (clinical isolate) in Vero cells. On the procedure: as §1, §2, §3
Figure 3 Antiviral activity of 5a–k against HSV-1 and HSV-2. Upper panel. Virus yield reduction assay. Vero cells were treated as described in the manuscript with the indicated compounds. The extent of (A) HSV-1 and (B) HSV-2 replication was then assessed by titrating the infectivity of supernatants and cell-associated viruses using a standard plaque assay in Vero cells. Plaques were microscopically counted, and the mean plaque counts for each molecule were expressed as PFU/mL. Mean ± SEM is shown (***, p < 0.001, one-way ANOVA followed by Bonferroni’s post-tests). Lower panel. […]

The next data set has as its system ICP8 and gD (HSV-2). Description: Western blot of viral gene expression in HSV-2-infected Vero cells. In kind it is cell-based, HSV-2 in Vero cells. Particulars: MOI 0.3, various times post infection, immunoblotting. On the procedure: (§5) Finally, to identify the phase of HSV replication program that is affected by amidinourea derivatives, the effects of 5i compound on viral gene expression was investigated in HSV-1 and HSV-2-infected cells. To this end, the total protein cell extracts were prepared from HSV-infected Vero cells treated with 5i, or vehicle control, for various lengths of time post infection. The expression patterns of ICP27, for HSV-1, ICP8, for HSV-2, gD, for HSV-1 and HSV-2, were then examined via immunoblotting with specific antibodies and were used as a reflection of the levels of immediate-early/early (ICP27, ICP8) and late (gD) viral products, respectively. […] However, the precise mechanism exploited by amidinourea derivatives to carry out their antiviral activity against HSV still deserves to be elucidated and is beyond the goals of the present communication.
(§6) After treatment, the cells were washed with phosphate-buffered saline (PBS), and cell lysis was carried out using radioimmunoprecipitation assay (RIPA) buffer to obtain total cell lysate. […]
(§7) Figure 5 Vero cells were mock infected or infected with HSV-1 (A) or HSV-2 (B) at an MOI of 0.3. Protein levels of ICP27 (HSV-1), ICP8 (HSV-2) and gD (HSV-1/2) were assessed at different times post infection (hpi) by Western blotting (upper panels). […]

The next data set concerns ICP27 and gD (HSV-1). The data set can be described thus: Western blot of viral gene expression in HSV-1-infected Vero cells. Particulars: MOI 0.3, various times post infection, immunoblotting. The class given is cell-based, HSV-1 in Vero cells. On the procedure:
as §5, §6, §7
In general terms: Immunoblotting shows a protein as a band on a membrane.

The CC50 is the concentration giving 50% cytotoxicity. In the case of `N=C(NC(=O)N1CCOCC1)Nc1ccc(Cl)cc1` [Compound 5d], the “antiviral activity against HSV-1 (in words)” value with HSV-1 is reported as “more pronounced against HSV-1”. For the same compound, the CC50 at 48 h in data set [1] was 1560 µM.
For `N=C(N)/N=C(\N)N1CCOCC1` [moroxydine, reference compound], in the data set on HSV-1, the “antiviral activity against HSV-1 (in words)” value is listed as “does not show any antiviral activity”. For the same compound, in the data set on HSV-2, the “antiviral activity against HSV-2 (in words)” value was “does not show any antiviral activity”.
For the compound `N=C(NC(=O)N1CCN(c2ccccc2)CC1)Nc1ccc(Cl)cc1` [Compound 5i], the “antiviral activity against HSV-1 (in words)” value with HSV-1 is given as “very strong activity”. For the same compound, in the data set on HSV-2, the “antiviral activity against HSV-2 (in words)” value is recorded as “very strong activity”. The CC50 at 48 h in data set [1] stood at 149 µM. In addition, the “expression of viral proteins ICP8 and gD (HSV-2)” value in the data set on ICP8 and gD (HSV-2) is recorded as “overall decrease of viral proteins”. In addition, the “expression of viral proteins ICP27 and gD (HSV-1)” value with ICP27 and gD (HSV-1) is “overall decrease of viral proteins”.
In the case of `N=C(NC(=O)NCCNc1ccccc1)Nc1ccc(Cl)cc1` [Compound 5e], the CC50 at 48 h in data set [1] came out at 142 µM.
`N=C(NCc1ccccc1)NC(=O)N1CCN(c2ccc(Cl)cc2)CC1` [Compound 5j]: in the data set on HSV-1, the IC50 came to 72.1 µM and the “antiviral activity against HSV-1 (in words)” value is listed as “very strong activity”. Also, the “antiviral activity against HSV-2 (in words)” value in the data set on HSV-2 is given as “very strong activity”. The same compound registered a CC50 at 48 h in data set [1] of 177 µM.
Consider `N=C(NC(=O)N1CCNC(c2ccccc2)C1)Nc1ccc(Cl)cc1` (stereo not drawn) [Compound 5f], for which the CC50 at 48 h in data set [1] turned out to be 98.6 µM.
Same read-out and setting: next, `N=C(NCc1ccccc1)NC(=O)N1CCN(c2ccc(F)cc2)CC1` [Compound 5h]: 389 µM; `N=C(NCc1ccccc1)NC(=O)N1CCN(c2ccccc2)CC1` [Compound 5g]: 246 µM.
On to `N=C(NC(=O)N1CCN(C23CC4CC(CC(C4)C2)C3)CC1)Nc1ccc(Cl)cc1` [Compound 5k], for which, in the data set with HSV-1, the IC50 turned out to be 18.5 µM and the “antiviral activity against HSV-1 (in words)” value is recorded as “very strong activity”. Besides, the “antiviral activity against HSV-2 (in words)” value in the data set with HSV-2 is given as “very strong activity”. In data set [1], this compound came in with a CC50 at 48 h of 86.7 µM.
In data set [1], `Cc1ccc(CNC(=O)NC(=N)Nc2ccc(Cl)cc2)cc1` [Compound 5c] came in with a CC50 at 48 h of 184 µM.
In data set [1], `N=C(NC(=O)NCc1ccc(Cl)cc1)Nc1ccc(Cl)cc1` [Compound 5a] displayed a CC50 at 48 h of 168 µM.
In the case of `CC(NC(=O)NC(=N)Nc1ccc(Cl)cc1)c1ccccc1` (stereo not drawn) [Compound 5b], half-maximal cytotoxicity in data set [1] (CC50 at 48 h) was put at 196 µM.
